Results taken from PubChem BioAssay (NCI).
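Exposure lasted 48 hours, with cells grown in 96-well plates and compounds tested at five concentrations. TGI is the concentration that stops growth completely.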

Key:
Assay in all cases: inhibition of tumour cell growth, NCI panel, 48 h
NCI-H460 lung = test system: NCI-H460 lung
SNB-75 CNS = test system: SNB-75 CNS
SW-620 colon = test system: SW-620 colon
LOX IMVI melanoma = test system: LOX IMVI melanoma
XF 498 CNS = test system: XF 498 CNS
SNB-78 CNS = test system: SNB-78 CNS
SF-268 CNS = test system: SF-268 CNS
RXF 393 renal = test system: RXF 393 renal
M19-MEL melanoma = test system: M19-MEL melanoma
SK-MEL-5 melanoma = test system: SK-MEL-5 melanoma
786-0 renal = test system: 786-0 renal
DMS 114 small cell lung = test system: DMS 114 small cell lung
TK-10 renal = test system: TK-10 renal
HL-60(TB) leukemia = test system: HL-60(TB) leukemia
K-562 leukemia = test system: K-562 leukemia
SR leukemia = test system: SR leukemia
NCI-H23 lung = test system: NCI-H23 lung
CCRF-CEM leukemia = test system: CCRF-CEM leukemia
LXFL 529 NSCLC = test system: LXFL 529 NSCLC
HOP-18 NSCLC = test system: HOP-18 NSCLC
A549 NSCLC = test system: A549 NSCLC
DLD-1 colon = test system: DLD-1 colon
NCI-H226 lung = test system: NCI-H226 lung
OVCAR-3 ovarian = test system: OVCAR-3 ovarian
NCI-H522 lung = test system: NCI-H522 lung
SK-MEL-28 melanoma = test system: SK-MEL-28 melanoma
HT29 colon = test system: HT29 colon
HCT-116 colon = test system: HCT-116 colon
HCT-15 colon = test system: HCT-15 colon
SF-295 CNS = test system: SF-295 CNS
UO-31 renal = test system: UO-31 renal
A498 renal = test system: A498 renal
UACC-257 melanoma = test system: UACC-257 melanoma
SF-539 CNS = test system: SF-539 CNS
CAKI-1 renal = test system: CAKI-1 renal
OVCAR-5 ovarian = test system: OVCAR-5 ovarian
SN12C renal = test system: SN12C renal
KM20L2 colon = test system: KM20L2 colon
DMS 273 small cell lung = test system: DMS 273 small cell lung
M14 melanoma = test system: M14 melanoma
MOLT-4 leukemia = test system: MOLT-4 leukemia
ACHN renal = test system: ACHN renal
SNB-19 CNS = test system: SNB-19 CNS
U251 CNS = test system: U251 CNS
EKVX NSCLC = test system: EKVX NSCLC
SK-MEL-2 melanoma = test system: SK-MEL-2 melanoma
IGROV1 ovarian = test system: IGROV1 ovarian
OVCAR-8 ovarian = test system: OVCAR-8 ovarian
OVCAR-4 ovarian = test system: OVCAR-4 ovarian
MALME-3M melanoma = test system: MALME-3M melanoma
KM12 colon = test system: KM12 colon
RPMI-8226 leukemia = test system: RPMI-8226 leukemia
HCC-2998 colon = test system: HCC-2998 colon
SK-OV-3 ovarian = test system: SK-OV-3 ovarian
HOP-92 NSCLC = test system: HOP-92 NSCLC
HOP-62 NSCLC = test system: HOP-62 NSCLC
UACC-62 melanoma = test system: UACC-62 melanoma

SMILES: COc1cc2c[n+](C)c3c4cc(OC)c(OC)cc4c(OCCCCCCCCOc4cc5c6cc(OC)c(OC)cc6c[n+](C)c5c5cc(OC)c(OC)cc45)cc3c2cc1OC
- TGI (NCI-H460 lung): > 100 µM
- TGI (SNB-75 CNS): > 100 µM
- TGI (SW-620 colon): > 100 µM
- TGI (LOX IMVI melanoma): > 100 µM
- TGI (XF 498 CNS): > 100 µM
- TGI (SNB-78 CNS): > 100 µM
- TGI (SF-268 CNS): > 100 µM
- TGI (RXF 393 renal): > 100 µM
- TGI (M19-MEL melanoma): > 100 µM
- TGI (SK-MEL-5 melanoma): > 100 µM
- TGI (786-0 renal): > 100 µM
- TGI (DMS 114 small cell lung): > 100 µM
- TGI (TK-10 renal): > 100 µM
- TGI (HL-60(TB) leukemia): > 100 µM
- TGI (K-562 leukemia): > 100 µM
- TGI (SR leukemia): > 100 µM
- TGI (NCI-H23 lung): > 100 µM
- TGI (CCRF-CEM leukemia): > 100 µM
- TGI (LXFL 529 NSCLC): > 100 µM
- TGI (HOP-18 NSCLC): > 100 µM
- TGI (A549 NSCLC): > 100 µM
- TGI (DLD-1 colon): > 100 µM
- TGI (NCI-H226 lung): > 100 µM
- TGI (OVCAR-3 ovarian): > 100 µM
- TGI (NCI-H522 lung): > 100 µM
- TGI (SK-MEL-28 melanoma): > 100 µM
- TGI (HT29 colon): > 100 µM
- TGI (HCT-116 colon): > 100 µM
- TGI (HCT-15 colon): > 100 µM
- TGI (SF-295 CNS): > 100 µM
- TGI (UO-31 renal): > 100 µM
- TGI (A498 renal): > 100 µM
- TGI (UACC-257 melanoma): > 100 µM
- TGI (SF-539 CNS): > 100 µM
- TGI (CAKI-1 renal): > 100 µM
- TGI (OVCAR-5 ovarian): > 100 µM
- TGI (SN12C renal): > 100 µM
- TGI (KM20L2 colon): > 100 µM
- TGI (DMS 273 small cell lung): > 100 µM
- TGI (M14 melanoma): > 100 µM
- TGI (MOLT-4 leukemia): > 100 µM
- TGI (ACHN renal): > 100 µM
- TGI (SNB-19 CNS): 66.3 µM
- TGI (U251 CNS): > 100 µM
- TGI (EKVX NSCLC): > 100 µM
- TGI (SK-MEL-2 melanoma): > 100 µM
- TGI (IGROV1 ovarian): > 100 µM
- TGI (OVCAR-8 ovarian): > 100 µM
- TGI (OVCAR-4 ovarian): > 100 µM
- TGI (MALME-3M melanoma): > 100 µM
- TGI (KM12 colon): > 100 µM
- TGI (RPMI-8226 leukemia): > 100 µM
- TGI (HCC-2998 colon): > 100 µM
- TGI (SK-OV-3 ovarian): > 100 µM
- TGI (HOP-92 NSCLC): > 100 µM
- TGI (HOP-62 NSCLC): > 100 µM
- TGI (UACC-62 melanoma): > 100 µM
